Here are results for six compounds from ChEMBL document CHEMBL1201862, “PubChem BioAssay data set” (2004).

Among the test systems are COLO 205; DU-145; EKVX; HOP-92; MDA-MB-231; Malme-3M; NCI-H226; NCI-H23; NCI/ADR-RES; OVCAR-8; PC-3; RXF 393; SK-MEL-28; SK-MEL-2; SK-OV-3; SR; SW-620; T47D; UACC-257; UO-31.
Common to all, as to assay: NCI-60 cell line screen, 48 h

The structures appear in SMILES notation.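 Briefly, cells in 96-well plates were exposed to five compound concentrations for 48 h, and endpoints were estimated by linear interpolation. Abbreviation: GI50, concentration required for 50% inhibition of growth.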 Active and inactive are the calls of the source. Rule as the data show it: active = GI50 up to about 1.1 µM and inactive = higher.

For the compound `C[C@@]12C[C@@H](c3ccccc3O1)N1CCCSC1=N2`, the GI50 in the assay with COLO 205, in the assay on DU-145, in the assay on EKVX, with HOP-92, in the assay on MDA-MB-231 and in the assay on Malme-3M was > 100 µM (inactive) in each case. Besides, the GI50 in the assay with NCI-H226, in the assay on NCI-H23, in the assay with NCI/ADR-RES, with OVCAR-8, with PC-3 and in the assay on RXF 393 was > 100 µM (inactive) in each case. The GI50 in the assay with SK-MEL-28, in the assay on SK-MEL-2, with SK-OV-3, in the assay with SR, with SW-620 and in the assay on T47D was > 100 µM (inactive) in each case. For the same compound, the GI50 with UACC-257 and in the assay with UO-31 was > 100 µM (inactive) each time.

`Brc1ccc2[nH]cc(-c3csc(-c4c[nH]c5ccc(Br)cc45)n3)c2c1`: the GI50 is 1.61 µM (inactive) in the assay on COLO 205; 2.52 µM (inactive) with DU-145; 1.48 µM (inactive) in the assay on EKVX; 1.69 µM (inactive) in the assay with HOP-92; 1.66 µM (inactive) with MDA-MB-231; 1.56 µM (inactive) in the assay with Malme-3M. The GI50 is 2.1 µM (inactive) in the assay with NCI-H226; 2.27 µM (inactive) in the assay on NCI-H23; 2.21 µM (inactive) in the assay on NCI/ADR-RES; 2.45 µM (inactive) in the assay with OVCAR-8; 1.97 µM (inactive) in the assay with PC-3; 2.14 µM (inactive) in the assay on RXF 393. Moreover, the GI50 is 2.11 µM (inactive) in the assay with SK-MEL-28; 1.9 µM (inactive) in the assay with SK-MEL-2; 2.5 µM (inactive) in the assay on SK-OV-3; 1.63 µM (inactive) in the assay with SR; 1.84 µM (inactive) with SW-620; 2.44 µM (inactive) in the assay on T47D. For the same compound, the GI50 is 2.92 µM (inactive) in the assay with UACC-257 and 2.42 µM (inactive) in the assay with UO-31.

For the compound `CN1CCN(c2c(Cl)cc(Cl)c3[nH]c4ccccc4c(=O)c23)CC1`, the GI50 with COLO 205 is 4.17 µM (inactive); with DU-145 it was 5.4 µM (inactive); with EKVX, 10.5 µM (inactive); in the assay with HOP-92 it was 1.35 µM (inactive); in the assay with MDA-MB-231, 10.3 µM (inactive); in the assay with Malme-3M it was 1.96 µM (inactive). Further, the GI50 was 9.77 µM (inactive) in the assay with NCI-H226; 8.87 µM (inactive) in the assay with NCI-H23; 7.35 µM (inactive) with NCI/ADR-RES; 5.07 µM (inactive) with OVCAR-8; 6.38 µM (inactive) with PC-3; 12.6 µM (inactive) with RXF 393. In addition, the GI50 in the assay with SK-MEL-28 was 13.1 µM (inactive); with SK-MEL-2, 12.2 µM (inactive); in the assay on SK-OV-3 it was 11.1 µM (inactive); in the assay with SR, 0.301 µM (active); in the assay with SW-620 it was 3.82 µM (inactive); in the assay on T47D, 9.23 µM (inactive). Moreover, the GI50 with UACC-257 is 8.45 µM (inactive); in the assay on UO-31 it was 4.29 µM (inactive).

Regarding `COC(=O)C1=CC(=O)OC1(OO)c1ccccc1` (stereo not given), the GI50 is > 100 µM (inactive) in the assay on COLO 205; > 100 µM (inactive) in the assay with DU-145; > 100 µM (inactive) in the assay on EKVX; 30.8 µM (inactive) with HOP-92; > 100 µM (inactive) in the assay on MDA-MB-231; 28.3 µM (inactive) with Malme-3M. The GI50 in the assay with NCI-H226, in the assay on NCI-H23, in the assay with NCI/ADR-RES, with OVCAR-8, in the assay on PC-3 and in the assay with RXF 393 was > 100 µM (inactive) each time. Further, the GI50 was > 100 µM (inactive) in the assay with SK-MEL-28; > 100 µM (inactive) in the assay with SK-MEL-2; > 100 µM (inactive) in the assay with SK-OV-3; 42.1 µM (inactive) with SR; 68.1 µM (inactive) in the assay with SW-620; > 100 µM (inactive) in the assay with T47D. Also, the GI50 with UACC-257 and in the assay with UO-31 was > 100 µM (inactive) in each case.

As for `CCCCCCCCCCNC(=O)CCC(NC(=O)c1ccc(N(C)Cc2cnc3nc(N)nc(N)c3n2)cc1)C(=O)NCCCCCCCCCC` (stereo not given), the GI50 in the assay on COLO 205 was 7.01 µM (inactive); with DU-145 it was 20.1 µM (inactive); in the assay with EKVX, 12.3 µM (inactive); in the assay with HOP-92, 9.1 µM (inactive); in the assay on MDA-MB-231 it was 3.57 µM (inactive); in the assay on Malme-3M, 12.4 µM (inactive). Further, the GI50 with NCI-H226 is 18.8 µM (inactive); with NCI-H23 it was 14.7 µM (inactive); in the assay with NCI/ADR-RES it was > 90.6 µM (inactive); with OVCAR-8, 8.45 µM (inactive); with PC-3, 5.62 µM (inactive); with RXF 393 it was 5.53 µM (inactive). For the same compound, the GI50 is 8.79 µM (inactive) in the assay with SK-MEL-28; 13.6 µM (inactive) in the assay on SK-MEL-2; 27.8 µM (inactive) in the assay with SK-OV-3; 2.94 µM (inactive) in the assay on SR; 3.13 µM (inactive) in the assay with SW-620; 11.6 µM (inactive) in the assay on T47D. Also, the GI50 in the assay with UACC-257 was 7.89 µM (inactive); in the assay on UO-31, 74.3 µM (inactive).

On to `C=CC(OC(C)=O)c1ccc(OC(C)=O)cc1` (stereo not given), for which the GI50 in the assay on COLO 205 is 3.85 µM (inactive); in the assay on DU-145, 10.4 µM (inactive); with EKVX, 13.8 µM (inactive); in the assay with HOP-92 it was 8.47 µM (inactive); in the assay with MDA-MB-231 it was 3.3 µM (inactive); in the assay with Malme-3M, 2.92 µM (inactive). The GI50 in the assay with NCI-H226 was 15.7 µM (inactive); with NCI-H23 it was 17 µM (inactive); with NCI/ADR-RES it was 7.01 µM (inactive); in the assay on OVCAR-8 it was 3.94 µM (inactive); in the assay with PC-3, 2.56 µM (inactive); with RXF 393 it was 14 µM (inactive). Also, the GI50 in the assay with SK-MEL-28 was 9.27 µM (inactive); with SK-MEL-2 it was 4.97 µM (inactive); in the assay on SK-OV-3, 17.5 µM (inactive); in the assay with SR it was 2.69 µM (inactive); in the assay on SW-620, 2.21 µM (inactive); in the assay on T47D, 2.72 µM (inactive). In addition, the GI50 is 6.04 µM (inactive) with UACC-257 and 2.1 µM (inactive) in the assay with UO-31.
